We go through 2 compounds from patent US20200164065A1, “TRITERPENE SAPONIN ANALOGUES” (ADJUVANCE TECHNOLOGIES, INC., priority 2017, published 2020).

Where two headings read alike, the source gives them in different places.

Series [1] can be described thus: Stability at 37° C. In kind it is physicochemical. To be noted: after two weeks at 37° C.
Procedure: (§1) Natural and synthetic QS-21 (SQS-21 or SAPONEX®) and a variety of analogs were tested for hemolytic activity.
Series [2] concerns hemolysis. In words: Hemolytic assay. In kind it is cell-based.
Procedure: as §1
Series [3] is described as follows: Pharm/tox study with Adacel, QS-21 and TiterQuil-1055: body weight.
Source text: A 0.5 mcg dose of Adacel was selected for a pharmacology/toxicology (pharm/tox) study.
Mice were vaccinated SC on days 1 and 15, weighed daily, and bled and sacrificed on day 22, except for group 7 which was sacrificed on day 29.
For series [4] the following is noted: mouse, in vivo.
The subject of series [5] is HA from H3N2 virus. In words: Anti-HA total IgG ELISA after immunization with HA protein. Particulars: 50 μg Compound I-4 with 9 or 3 μg/ml HA protein vs 9 μg/ml HA alone, day 21 serum. In kind it is in vivo, female BL/6 mice.
For series [6], the system named is liver. In words: Pilot pharm/tox study: histopathology of 33 tissues.
Series [7] can be described thus: Companion toxicity study: body mass three days after immunization. Particulars: 20 mcg.
For series [8] the following is noted: cited from earlier work.

As for `CC1O[C@@H](OC2C(O)[C@@H](NC(=O)CCCCCCCCCCC(=O)O)C(CO)O[C@H]2OC(=O)[C@]23CCC(C)(C)CC2C2=CCC4C5(C)CC[C@H](O)C(C)(C=O)C5CCC4(C)C2(C)CC3O)C(O)C(O)[C@H]1O[C@@H]1OC[C@@H](O)C(O)C1O` (some centres unmarked) [Compound I-4], the degraded result in [1] was “without detectable degradation”. For the same compound, in series [2], the hemolytic activity entry is on record as “much lower or undetectable hemolytic activity”. The weight loss entry in series [3] (mice receiving 50 mcg) is reported as “No weight loss”, the weight loss result (30 mcg dose with Engerix-B) is “No weight loss”, the weight loss (100 mcg dose with Engerix-B) worked out at 4% and the weight loss (300 mcg dose with Engerix-B) turned out to be 5%. The “body mass gained on average” value in series [4] was 5%. In addition, the “anti-HA total IgG endpoint titer and dose sparing of HA” value in [5] is “enhances anti-HA total IgG and provides a dose sparing effect on HA concentration”. Further, the “liver histopathology (hepatocellular cytoplasmic vacuolization)” value in series [6] (SC days 1 and 15, sacrificed day 22, 50 mcg TiterQuil-1055, 20 mcg QS-21, Adacel 2.5 mcg pertussis toxin) is given as “No changes at all”.
For QS-21 [reference compound], the degraded in series [1] turned out to be 20%. For the same compound, the hemolytic activity result in series [2] was “highly hemolytically active”. The “body mass lost on average” value in [7] is 8-10%. Further, the “tolerated / maximum dose in cancer patients” value in series [8] (cancer patients, above it local and systemic side effects) is 100 to 150 µg. For the same compound, the “maximum dose for healthy patients” value in series [8] (healthy patients) was ~50 µg. The “highest practical tolerable dose” value in series [8] (well (non-cancer) adult and child recipients) is 25 to 50 µg. Besides, the body weight lost in [3] (mice injected with 20 mcg) is on record as 8-9%. The “liver histopathology (hepatocellular cytoplasmic vacuolization)” value in [6] (mouse, in vivo, sc) is on record as “Mild vacuolar changes”.
